Reference: the Kinase Knowledgebase extract (Sharma et al. 2016)

The molecules below were run against PIK3CD (Human) (UniProt O00329) (assay: Enzyme Assay).
Sequence of PIK3CD (Human) (O00329 whole entry, looked up): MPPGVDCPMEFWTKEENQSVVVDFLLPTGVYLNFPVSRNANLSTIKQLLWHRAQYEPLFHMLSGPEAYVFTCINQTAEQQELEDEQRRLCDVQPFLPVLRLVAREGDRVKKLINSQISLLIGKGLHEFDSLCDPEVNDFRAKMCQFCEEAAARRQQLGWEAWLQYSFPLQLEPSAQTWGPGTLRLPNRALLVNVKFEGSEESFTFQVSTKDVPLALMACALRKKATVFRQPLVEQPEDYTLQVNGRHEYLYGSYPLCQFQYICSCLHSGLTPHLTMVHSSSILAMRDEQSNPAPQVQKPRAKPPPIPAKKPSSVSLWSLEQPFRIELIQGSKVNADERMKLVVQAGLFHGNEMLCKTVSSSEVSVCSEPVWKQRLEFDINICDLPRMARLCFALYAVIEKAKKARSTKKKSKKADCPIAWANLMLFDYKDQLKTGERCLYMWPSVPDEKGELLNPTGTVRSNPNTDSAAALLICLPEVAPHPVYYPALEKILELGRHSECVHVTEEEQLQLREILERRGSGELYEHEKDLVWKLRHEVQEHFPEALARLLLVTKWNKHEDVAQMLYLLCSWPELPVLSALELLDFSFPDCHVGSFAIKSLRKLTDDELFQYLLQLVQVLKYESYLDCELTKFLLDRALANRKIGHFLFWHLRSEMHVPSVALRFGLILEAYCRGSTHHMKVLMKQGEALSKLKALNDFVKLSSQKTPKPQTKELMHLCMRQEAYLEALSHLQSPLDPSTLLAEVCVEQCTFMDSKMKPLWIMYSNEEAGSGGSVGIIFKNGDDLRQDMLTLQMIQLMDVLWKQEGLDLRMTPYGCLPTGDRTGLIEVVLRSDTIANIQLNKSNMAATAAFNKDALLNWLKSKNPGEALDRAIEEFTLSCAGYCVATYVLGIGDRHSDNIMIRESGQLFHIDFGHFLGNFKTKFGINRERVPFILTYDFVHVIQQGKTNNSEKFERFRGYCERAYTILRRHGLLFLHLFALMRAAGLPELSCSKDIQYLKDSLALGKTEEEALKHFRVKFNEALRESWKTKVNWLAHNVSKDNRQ

Row | Structure (SMILES) | IC50
1 | CCn1c(-c2cnc(C)nc2)nc2c(O[C@@H]3CN(C(=O)OC(C)(C)C)C[C@H]3O)ncnc21.CCn1c(-c2cnc(C)nc2)nc2c(O[C@H]3CN(C(=O)OC(C)(C)C)C[C@@H]3O)ncnc21 | 3.7 nM
2 | CCn1ncc(-c2nc3c(O[C@H]4CCN(C(=O)c5ccncc5)C4)ncnc3n2C)c1C | 13 nM
3 | CCNC(=O)N1CC[C@H](Oc2ncnc3c2nc(-c2cnc(C)nc2)n3CC)C1 | 19 nM
4 | CCn1ncc(-c2nc3c(O[C@H]4CCN(C(=O)c5cc(C(C)C)n[nH]5)C4)ncnc3n2C)c1C | 109 nM
5 | CCn1ncc(-c2nc3c(O[C@H]4CCN(C(=O)c5cccn5C)C4)ncnc3n2C)c1C | 8.7 nM
6 | CCn1ncc(-c2nc3c(O[C@H]4CCN(C(=O)c5cc(C(C)(C)C)nn5C)C4)ncnc3n2C)c1C | 150 nM
7 | CCn1c(-c2cnc(C(F)(F)F)nc2)nc2c(O[C@H]3CCN(C(=O)C4CC4)C3)ncnc21 | 18 nM
8 | CCn1ncc(-c2nc3c(S[C@H]4CCN(c5ccncn5)C4)ncnc3n2C)c1C | 6 nM
9 | CCn1ncc(-c2nc3c(O[C@H]4CCN(C(=O)Oc5ccccc5)C4)ncnc3n2C)c1C | 90 nM
10 | CCn1ncc(-c2nc3c(O[C@H]4CCN(C(=O)C5CCOC(C)(C)C5)C4)ncnc3n2C)c1C (stereo partly specified) | 1.2 nM
11 | CCn1c(-c2cnc(C)nc2)nc2c(O[C@H]3CCN(C(=O)C4(N)CCC4)C3)ncnc21 | 50 nM
12 | CCn1ncc(-c2nc3c(OC4CCN(C(=O)C5CCOCC5)CC4)ncnc3n2C)c1C | 1100 nM
13 | CCC(=O)N1CC[C@H](Oc2ncnc3c2nc(-c2cnn(C(C)(C)C)c2)n3C)C1 | 4.7 nM
14 | CCOC(=O)N1CC[C@H](Oc2ncnc3c2nc(-c2cnc(C)nc2)n3CC)C1 | 18 nM
15 | CCn1ncc(-c2nc3c(O[C@H]4CCN(C(=O)Oc5cccc(C(F)(F)F)c5)C4)ncnc3n2C)c1C | 300 nM
16 | CCn1ncc(-c2nc3c(O[C@H]4CCN(c5cc(-n6cccn6)ncn5)C4)ncnc3n2C)c1C | 216 nM
17 | CCn1ncc(-c2nc3c(O[C@H]4CCN(C(=O)c5noc(C(C)(C)O)n5)C4)ncnc3n2C)c1C | 120 nM
18 | CCn1ncc(-c2nc3c(O[C@H]4CCN(C(=O)c5c[nH]nc5C(F)(F)F)C4)ncnc3n2C)c1C | 21 nM
19 | CCCn1c(-c2cnc(C)nc2)nc2c(O[C@H]3CCN(C(=O)CC)C3)ncnc21 | 130 nM
20 | CCn1c(-c2ccc(OC(F)F)nc2)nc2c(O[C@@H]3CCN(C(=O)C4CC4)C3)ncnc21 | 14 nM
21 | CCn1c(-c2cnc(C(C)(C)C)s2)nc2c(O[C@H]3CCN(C(=O)OC(C)(C)C)C3)ncnc21 | 0.5 nM
22 | CCn1c(-c2cnc(C)nc2)nc2c(O[C@H]3CCN(C(=O)N(C)c4ccccc4)C3)ncnc21 | 32 nM
23 | CCn1c(N(C)CCO)nc2c(O[C@H]3CCN(C(=O)OC(C)(C)C)C3)ncnc21 | 830 nM

Row | Structure (SMILES) | IC50
24 | CCn1ncc(-c2nc3c(O[C@H]4CCN(S(=O)(=O)CC)C4)ncnc3n2C)c1C | 200 nM
25 | CCC(=O)N1CC[C@H](Oc2ncnc3c2nc(C(F)(F)F)n3CC)C1 | 99 nM
26 | Cc1cc2cccc(-c3nc4c(O[C@H]5CCN(C(=O)OC(C)(C)C)C5)ncnc4n3C)c2[nH]1 | 660 nM
27 | CCn1ncc(-c2nc3c(O[C@H]4CCN(C(=O)c5nnsc5C)C4)ncnc3n2C)c1C | 5.3 nM
28 | CCC(=O)N1CC[C@H](Oc2ncnc3c2nc(-c2cnc(OC)c(F)c2)n3C)C1 | 9.3 nM
29 | CCC(=O)N1CC[C@H](Oc2ncnc3c2nc(-c2cnn(CC)c2C)n3C)C1 | 12 nM
30 | CCn1ncc(-c2nc3c(O[C@H]4CCN(C(=O)c5nccn5C)C4)ncnc3n2C)c1C | 35 nM
31 | CCC(=O)N1CC[C@H](Oc2ncnc3c2nc(-c2cnc(OC)c(C(F)(F)F)c2)n3C)C1 | 7.8 nM
32 | CCn1ncc(-c2nc3c(S[C@H]4CCN(C(=O)c5coc(C)n5)C4)ncnc3n2C)c1C | 25 nM
33 | CCn1c(-c2cnc(C)nc2)nc2c(O[C@H]3CCN(C(=O)C4CC4C)C3)ncnc21 (stereo partly specified) | 1.5 nM
34 | CCn1c(-c2cnc(C)nc2)nc2c(O[C@@H]3CN(C(=O)OC(C)(C)C)CC3(F)F)ncnc21.CCn1c(-c2cnc(C)nc2)nc2c(O[C@H]3CN(C(=O)OC(C)(C)C)CC3(F)F)ncnc21 | 22 nM
35 | CCn1ncc(-c2nc3c(O[C@H]4CCN(c5ncnc6sccc56)C4)ncnc3n2C)c1C | 5.7 nM
36 | CCn1ncc(-c2nc3c(O[C@H]4CCN(C(=O)c5c[nH]nn5)C4)ncnc3n2C)c1C | 12 nM
37 | CCn1c(-c2ccc(OC)c(F)c2)nc2c(O[C@H]3CCN(C(=O)C4CC4)C3)ncnc21 | 2.2 nM
38 | CCn1ncc(-c2nc3c(O[C@H]4CCN(CC5CCCCC5)C4)ncnc3n2C)c1C | 300 nM
39 | CCn1c(-c2cnc(C)nc2)nc2c(O[C@H]3CCN(C(=O)N4C5CCC4CC5)C3)ncnc21 | 10 nM
40 | CCn1c(N2CCC(S(C)(=O)=O)C2)nc2c(O[C@H]3CCN(C(=O)OC(C)(C)C)C3)ncnc21 (stereo partly specified) | 700 nM
41 | CCC(=O)N1CC[C@H](Oc2ncnc3c2nc(I)n3C)C1 | 140 nM
42 | Cc1n[nH]c2ncc(-c3nc4c(O[C@H]5CCN(C(=O)OC(C)(C)C)C5)ncnc4n3C)cc12 | 4 nM
43 | CCn1ncc(-c2nc3c(O[C@H]4CCN(C(=O)NC(C)(C)CC(C)(C)C)C4)ncnc3n2C)c1C | 4.7 nM
44 | CCn1c(-c2cnc(OC)c(NS(C)(=O)=O)c2)nc2c(O[C@H]3CCN(C(=O)C4CC4)C3)ncnc21 | < 1 nM
45 | CCn1ncc(-c2nc3c(O[C@H]4CCN(C(=O)c5cnn6ccccc56)C4)ncnc3n2C)c1C | 130 nM
46 | CCn1c(-c2cnn3c2CCCC3)nc2c(O[C@H]3CCN(C(=O)C4CC4)C3)ncnc21 | < 1 nM

Row | Structure (SMILES) | IC50
47 | CCn1ncc(-c2nc3c(O[C@H]4CCN(C(=O)NC5CCCCC5)C4)ncnc3n2C)c1C | 230 nM
48 | CCn1ncc(-c2nc3c(O[C@H]4CCN(C(=O)c5ccc(C)nc5)C4)ncnc3n2C)c1C | 70 nM
49 | CCn1ncc(-c2nc3c(O[C@H]4CCN(C(=O)Nc5cccc(C)c5)C4)ncnc3n2C)c1C | 650 nM
50 | CCn1ncc(-c2nc3c(OC4CCC(C(=O)N5CCOCC5)C4)ncnc3n2C)c1C (stereo unspecified) | 220 nM
51 | CCC(=O)N[C@H]1CC[C@H](Oc2ncnc3c2nc(-c2cnc(C)nc2)n3CC)CC1 | 330 nM
52 | CCn1ncc(-c2nc3c(O[C@H]4CCN(C(=O)c5cnn6cc[nH]c56)C4)ncnc3n2C)c1C | 270 nM
53 | CCC(=O)N1CC[C@H](Oc2ncnc3c2nc(Oc2cnc(C)nc2)n3C)C1 | 380 nM
54 | CCC(=O)N1CC[C@H](Oc2ncnc3c2nc(-c2cnc(C)nc2)n3C)C1 | 36 nM
55 | CCn1c(-c2ccnc(OC)c2)nc2c(O[C@H]3CCN(C(=O)C4CC4)C3)ncnc21 | 20 nM
56 | Cn1c(-c2cn[nH]c2)nc2c(O[C@H]3CCN(C(=O)OC(C)(C)C)C3)ncnc21 | 28 nM
57 | CCn1c(C(=O)NC2CCCCC2)nc2c(O[C@H]3CCN(C(=O)OC(C)(C)C)C3)ncnc21 | 72 nM
58 | CCNC(=O)N1CC[C@H](Oc2ncnc3c2nc(-c2cnn(CC)c2C)n3C)C1 | 10 nM
59 | CCn1c(-c2cnc(C)nc2C)nc2c(O[C@H]3CCN(C(=O)C4CC4)C3)ncnc21 | 44 nM
60 | CCn1c(-c2cnc(C)nc2)nc2c(OC3CCC(NC(=O)C4CCOCC4)C3)ncnc21 (stereo unspecified) | 170 nM
61 | CCC(=O)N1CC[C@H](S(=O)(=O)c2ncnc3c2nc(-c2cnn(CC)c2C)n3C)C1 | 210 nM
62 | CCn1c(-c2cnc(C)nc2)nc2c(O[C@H]3CCN(C(=O)[C@H]4CC5CCN4C5)C3)ncnc21 (stereo partly specified) | 88 nM
63 | CCOC(=O)C(C)NC(=O)N1CC[C@H](Oc2ncnc3c2nc(-c2cnn(CC)c2C)n3C)C1 (stereo partly specified) | 110 nM
64 | Cc1nn(C)cc1-c1nc2c(O[C@H]3CCN(C(=O)OC(C)(C)C)C3)ncnc2n1C | 1200 nM
65 | CCn1c(-c2cnc(C)nc2)nc2c(O[C@H]3CCN(C(=O)N4CCC(F)(F)C4)C3)ncnc21 | 14 nM
66 | CCn1ncc(-c2nc3c(O[C@H]4CCN(C(=O)c5ccnn5C)C4)ncnc3n2C)c1C | 22 nM
67 | CCn1ncc(-c2nc3c(O[C@H]4CCN(C(=O)c5ccccn5)C4)ncnc3n2C)c1C | 27 nM
68 | CCn1c(-c2cnc(OC)c(C(F)(F)F)c2)nc2c(O[C@H]3CCN(C(=O)C4CC4)C3)ncnc21 | < 1 nM
69 | CCn1ncc(-c2nc3c(O[C@H]4CCN(C(=O)c5nonc5C)C4)ncnc3n2C)c1C | 26 nM

Row | Structure (SMILES) | IC50
70 | CCC(=O)N1CC[C@H](Oc2ncnc3c2nc(-c2ccc(S(C)(=O)=O)cc2)n3C)C1 | 300 nM
71 | CCn1c(-c2cnc(C)nc2)nc2c(O[C@H]3CCN(c4ccc5cnoc5c4)C3)ncnc21 | 11 nM
72 | CCn1ncc(-c2nc3c(O[C@H]4CCN(C(=O)OCc5ccccc5)C4)ncnc3n2C)c1C | 14 nM
73 | CCn1c(-c2cnn3c2CCCC3)nc2c(O[C@H]3CCN(C(=O)C(C)C)C3)ncnc21 | < 1 nM
74 | CCC(=O)N1CC[C@H](Oc2ncnc3c2nc(-c2cnn4c2CCCC4)n3C)C1 | 2.4 nM
75 | CCn1c(-c2cnc(C)nc2)nc2c(O[C@H]3CCN(C(=O)CC(C)(C)N)C3)ncnc21 | 9.3 nM
76 | CCOC(=O)N1CC[C@H](Oc2ncnc3c2nc(-c2cnn(CC)c2C)n3C)C1 | 33 nM
77 | Cc1ncc(-c2nc3c(O[C@H]4CCN(C(=O)OC(C)(C)C)C4)ncnc3n2C)cn1 | 99 nM
78 | CCn1c(N2CCC(C)C2)nc2c(O[C@H]3CCN(C(=O)OC(C)(C)C)C3)ncnc21 (stereo partly specified) | 570 nM
79 | CCC(=O)N1CC[C@H](Oc2ncnc3c2nc(-c2cc(O)cc(F)c2)n3C)C1 | 3.8 nM
80 | CCn1c(-c2ccc(C(F)(F)F)cc2)nc2c(O[C@H]3CCN(C(=O)C4CC4)C3)ncnc21 | 3.4 nM
81 | CCn1ncc(-c2nc3c(O[C@H]4CCN(C(=O)c5ccn[nH]5)C4)ncnc3n2C)c1C | 3 nM
82 | CCC(=O)N1CC[C@H](Oc2ncnc3c2nc(-c2ccc4cc[nH]c4c2)n3C)C1 | 120 nM
83 | CCn1ncc(-c2nc3c(O[C@H]4CCN(C(=O)OCC(C)(C)C)C4)ncnc3n2C)c1C | 28 nM
84 | CCn1ncc(-c2nc3c(O[C@H]4CCN(c5nccc(-c6ccco6)n5)C4)ncnc3n2C)c1C | 128 nM
85 | CCC(=O)N1CC[C@H](Oc2ncnc3c2nc(-c2cnc(OC)c(C)c2)n3CC)C1 | 0.5 nM
86 | CCC(=O)N1CC[C@H](Oc2ncnc3c2nc(CC(C)C)n3C)C1 | 890 nM
87 | CCn1c(C(=O)NCC(F)(F)F)nc2c(O[C@H]3CCC(C(=O)N4CC(OC)C4)C3)ncnc21 (stereo partly specified) | 9.9 nM
88 | CCn1ncc(-c2nc3c(CC4CCN(C(=O)C5CCOCC5)C4)ncnc3n2C)c1C (stereo unspecified) | 290 nM
89 | CCn1c(-c2cnc(C)nc2)nc2c(O[C@H]3CC[C@@H](NC(=O)C4CC4)CC3)ncnc21 | 120 nM
90 | CCC(=O)N1CC[C@H](Oc2ncnc3c2nc(-c2cnn(-c4ccccc4)c2)n3C)C1 | 6.5 nM
91 | CCn1c(-c2cnc(C)nc2)nc2c(O[C@H]3CCN(C(=O)C4CC(C)C4)C3)ncnc21 (stereo partly specified) | 1.3 nM
